Test results: patent US20240410831A1, “Multi-Mode Zinc-Selective Emission-Ratiometric Fluorescent Probes for Biological Application” (Georgia Tech Research Corporation, priority 2023, published 2024)

Legend:
[1] = Molar ratio titration with Zn(OTf)2 in methanol (absorption and fluorescence); format: physicochemical; conditions: for fluorescence emission maximum: excitation at 395 nm
Description: To prevent solution aggregation of the charge-neutral compounds exemplified by Formula I, Formula II, and/or a derivative thereof (e.g., for example probe 8) in PIPES buffer, the initial solution characterization was conducted in analytical grade MeOH. […] Consistent with an increased ground- and excited state polarization upon Zn(II) complexation, the absorption maximum is red-shifted by 34 nm from 376 nm to 410 nm. Sharp isosbestic points at 306 nm and 395 nm, as well as saturation at an equimolar Zn(II) concentration are indicative of a well-defined solution equilibrium involving only the free probe 8 and a discrete Zn(II)-complex with 1:1 metal-ligand stoichiometry.
Similarly, the fluorescence emission maximum of Formula I, Formula II, and/or a derivative thereof (e.g., for example probe 8) is red-shifted from 460 nm to 513 nm upon Zn(II)-binding. […] To provide a direct comparison with previous probes, probe 8 was also analyzed in aqueous buffer containing DMPC/DMPG liposomes that mimic the lipid bilayers present in cells.
A solution of Formula I, Formula II, and/or a derivative thereof (e.g., for example probe 8) (10 μM) in analytical grade MeOH prepared in a quartz cuvette with a 1-cm pathlength was titrated with Zn(OTf)2 (from a 0.3 mM aqueous stock solution) in 1.0 μM (0.1 molar equiv.) increments. After each aliquot of Zn(II), the solution was equilibrated for 1 minute by magnetic stirring, and an absorbance (spectral window: 250-500 nm) and fluorescence spectrum (excitation at 395 nm, spectral window 405-705 nm) were acquired. In another embodiment, a solution of Formula I, Formula II, and/or a derivative thereof (e.g., for example probe 8 in FIG. 4H) (10 PM) in Chelex®-PIPES buffer (10 mM, 0.1 M KCl, pH 7.0, 25° C.) containing 100 μM of liposomes (4:1 mixture of DMPC and DMPG) prepared in a quartz cuvette with a 1-cm pathlength was titrated with Zn(OTf)2 (from a 0.3 mM aqueous stock solution) in 1.0 μM (0.1 molar equiv.) increments. After each aliquot of Zn(II), the solution was equilibrated for 1 minute by magnetic stirring, and a fluorescence spectrum (excitation: 405 nm, spectral window 420-700 nm) was acquired.

[2] = Fluorescence quantum yield measurement; format: physicochemical; conditions: liposome solution, pH 7.0 PIPES
Description: The quantum yields of the free Formula I, Formula II, and/or a derivative thereof (e.g., for example probe 8) was determined using quinine sulfate as a reference (Df=0.546 in 1.0 N H2SO4). The quantum yield was derived from a 5-point measurement in Chelex®-treated PIPES buffer containing 100 μM of 4:1 DMPC:DMPG liposomes (pH 7.0, 10 mM PIPES, 0.1 M KCl, 25° C.). For the free compound 1 (e.g., for example probe 8 in FIG. 4H), the solutions were supplemented with 20 μM of EDTA (from a 3.0 mM stock solution in DI H2O). The quantum yield of the probe 8-Zn(II) complex was independently determined under the same conditions in the presence of 1.1 molar equivalent of Zn(OTf)2. The quantum yield of the Zn(II) complex was confirmed with fluorescence quantum yield ratio. The fluorescence quantum yields were calculated as an average of two independent measurements.

[3] = test system: live mouse fibroblast 3T3 cells; experiment: Ratiometric imaging of labile Zn(II) by laser confocal fluorescence microscopy (excitation at 405 nm); format: cell-based; conditions: for average fluorescence ratio R (BP2/BP1): confocal 405 nm
Description: With reference to FIG. 7B, ratiometric imaging of labile Zn(II) pools in live mouse fibroblast 3T3 cells with Formula I and/or Formula IA (e.g., for example probe 8) by TPEM (excitation at 405 nm). (A) of FIG. 7B Left: Intensities acquired with 520 nm-600 nm (BP2) and 440 nm-495 nm (BP1) bandpass filters respectively. Right: Intensity ratio imagines with R=BP2/BP1. (B) of FIG. 7B Left: Ratio images (BP2/BP1) before (prior to t=5 min) and after the addition of 50 μM ZnSO4 and 5.0 μM pyrithione. Addition of TPEN at t=15 min resulted the reversal of the initial fluorescence ratio change. (C) of FIG. 7B: Mean fluorescence ratio of the cytoplasmic region averaged over 10 cells (P values calculated for n=10 using a two-tailed test). (D) of FIG. 7B: Time course of the average ratio change for mean fluorescence ratio in the cytosol averaged over 10 cells.
To investigate whether Formula I, Formula II, and/or a derivative thereof (e.g., for example probe 8) may also be employed with one-photon excitation at 405 nm, the imagine experiment was repeated with a conventional confocal fluorescence microscope equipped with a 405 nm laser as the excitation source. […] The averaged fluorescence ratio indicated a uniform fractional saturation with an average ratio of R=0.57±0.04. […] The difference in fluorescence ratios is likely due to differences in the absorption cross sections for linear vs. non-linear excitation. In principle, the ratio response could be further tuned by adjusting the sensitivity of the bandpass detectors.
In various embodiments, mouse fibroblast (3T3) cells were grown on poly-L-lysine treated glass bottom culture dishes (MatTek) to 90% confluency in DMEM growth media supplemented with 10% bovine calf serum, and 1% penicillin-streptomycin. Before imaging, the media was replaced with pre-warmed colorless serum-free DMEM (1% penicillin-streptomycin, and 1% sodium pyruvate) containing 1.0 μM of probe 8. The cells were incubated at 37° C. under an atmosphere of humidified air containing 5% CO2 for 15 mins. The incubation solution was replaced with prewarmed colorless serum free DMEM. Images were acquired at 37° C., 8% humidity, and 5% CO2 using a Zeiss LSM NLO 710 microscope equipped with a femtosecond pulsed Ti:sapphire laser and a blue 405 nm laser. Scanning fluorescence micrographs were acquired with excitation at 405 nm or 750 nm and the emission was simultaneously collected with bandpass ranges of 495-440 nm (BP1) and 600-520 nm (BP2). Image J was used to evaluate the change in fluorescence emission ratio over time as previously described. The emission ratio for each region of interest was averaged at each time point.
TPEN solid was fully dissolved in anhydrous DMSO to a concentration of 3.0 mM. […]

red shift of absorption maximum upon Zn(II) complexation [1]: 34 nm
absorption maximum ([1]; Zn(II) complex): 410 nm
fluorescence emission maximum ([1]; Zn(II)-bound): 513 nm
absorption maximum ([1]; free probe, 10 μM): 376 nm
fluorescence emission maximum ([1]; free probe): 460 nm
quantum yield ([2]; Zn(II)-probe complex): 78%
quantum yield ([2]; free probe): 72%
SMILES: COc1ccc2c(c1)C(C)(C)c1nc(-c3cccc(CN(Cc4ncccn4)Cc4ncccn4)n3)sc1-2 [probe 8]
cellular uptake ([3]; 3T3 cells, confocal): readily internalized
average fluorescence ratio R (BP2/BP1) ([3]; after TPEN): 0.56±0.04
average fluorescence ratio R (BP2/BP1) ([3]; after Zn(II) and ionophore pyrithione): 1.04±0.12
average fluorescence ratio R (BP2/BP1) ([3]; basal): 0.57±0.04
